From the NIST ThermoML archive (doi:10.1016/j.tca.2015.03.003)

Assay: molar heat capacity at constant pressure; xn = mol fraction of the nth substance listed
Conditions: 100 kPa, Small sample (50 mg) DSC

[Cl-].[K+] [potassium chloride] + [Cl-].[Na+]
Conditions	molar heat capacity at constant pressure [J/K/mol]
600 K, Crystal of unknown type, x1 = 0.75	52.17
600 K, Crystal of unknown type, x1 = 0.8	52.87
635 K, Crystal of unknown type, x1 = 0.8	53.15
635 K, Crystal, x1 = 0.8	52.52
650 K, Crystal of unknown type, x1 = 0.1	54.41
650 K, Crystal of unknown type, x1 = 0.2	56.61
650 K, Crystal of unknown type, x1 = 0.3	54.74
650 K, Crystal of unknown type, x1 = 0.4	55
650 K, Crystal of unknown type, x1 = 0.5	55.48
650 K, Crystal of unknown type, x1 = 0.6	54.91
650 K, Crystal of unknown type, x1 = 0.7	56.01
650 K, Crystal of unknown type, x1 = 0.75	52.52
650 K, Crystal, x1 = 0.8	52.97
683 K, Crystal of unknown type, x1 = 0.75	52.75
683 K, Crystal, x1 = 0.75	55.25
687 K, Crystal of unknown type, x1 = 0.7	56.56
687 K, Crystal, x1 = 0.7	53.53
700 K, Crystal of unknown type, x1 = 0.1	55.21
700 K, Crystal of unknown type, x1 = 0.2	57.36
700 K, Crystal of unknown type, x1 = 0.3	55.49
700 K, Crystal of unknown type, x1 = 0.4	55.6
700 K, Crystal of unknown type, x1 = 0.5	56.1
700 K, Crystal of unknown type, x1 = 0.6	55.76
700 K, Crystal, x1 = 0.7	54.17
700 K, Crystal, x1 = 0.75	56.4
700 K, Crystal, x1 = 0.8	54.47
733 K, Crystal of unknown type, x1 = 0.6	56.32
733 K, Crystal, x1 = 0.6	56.77
739 K, Crystal of unknown type, x1 = 0.1	55.83
739 K, Crystal, x1 = 0.1	55.59
750 K, Crystal of unknown type, x1 = 0.2	58.11
750 K, Crystal of unknown type, x1 = 0.3	56.24
750 K, Crystal of unknown type, x1 = 0.4	56.2
750 K, Crystal of unknown type, x1 = 0.5	56.71
750 K, Crystal, x1 = 0.1	55.9
750 K, Crystal, x1 = 0.6	57.39
750 K, Crystal, x1 = 0.7	56.62
750 K, Crystal, x1 = 0.75	59.8
750 K, Crystal, x1 = 0.8	55.97
753 K, Crystal of unknown type, x1 = 0.2	58.15
753 K, Crystal, x1 = 0.2	59.47
757 K, Crystal of unknown type, x1 = 0.5	56.8
757 K, Crystal, x1 = 0.5	57.77
769 K, Crystal of unknown type, x1 = 0.4	56.42
769 K, Crystal, x1 = 0.4	56.84
771 K, Crystal of unknown type, x1 = 0.3	56.56
771 K, Crystal, x1 = 0.3	57.44
800 K, Crystal, x1 = 0.1	57.3
800 K, Crystal, x1 = 0.2	61.35
800 K, Crystal, x1 = 0.3	58.49
800 K, Crystal, x1 = 0.4	58.24
800 K, Crystal, x1 = 0.5	59.38
800 K, Crystal, x1 = 0.6	59.19
800 K, Crystal, x1 = 0.7	59.07
800 K, Crystal, x1 = 0.75	63.2
800 K, Crystal, x1 = 0.8	57.47
850 K, Crystal, x1 = 0.1	58.7
850 K, Crystal, x1 = 0.2	63.35
850 K, Crystal, x1 = 0.3	60.29
850 K, Crystal, x1 = 0.4	60.49
850 K, Crystal, x1 = 0.5	61.26
850 K, Crystal, x1 = 0.6	60.99
850 K, Crystal, x1 = 0.7	61.52
850 K, Crystal, x1 = 0.75	66.6
850 K, Crystal, x1 = 0.8	58.97
900 K, Crystal, x1 = 0.1	60.1
900 K, Crystal, x1 = 0.2	65.35
900 K, Crystal, x1 = 0.3	62.09
900 K, Crystal, x1 = 0.4	62.74
900 K, Crystal, x1 = 0.5	63.13
900 K, Crystal, x1 = 0.6	62.79
900 K, Crystal, x1 = 0.7	63.97
900 K, Crystal, x1 = 0.75	70
900 K, Crystal, x1 = 0.8	60.47
930 K, Crystal, x1 = 0.5	64.25
930 K, Liquid, x1 = 0.5	81.03
950 K, Liquid, x1 = 0.5	82.5
1000 K, Liquid, x1 = 0.5	86.19
1050 K, Liquid, x1 = 0.5	89.88
1100 K, Liquid, x1 = 0.5	93.56
